The results in this text go back to ChEMBL document CHEMBL1148660, “Identification of an indole series of prostaglandin D2 receptor antagonists” (Bioorg Med Chem Lett, 2006).

Each structure is given as a SMILES string. pIC50, pKi: −log10 of the molar value.

For experiment [1], the target named is T1, Prostaglandin D2 receptor (Homo sapiens, UniProt Q13258).
T1 sequence (Q13258 whole entry): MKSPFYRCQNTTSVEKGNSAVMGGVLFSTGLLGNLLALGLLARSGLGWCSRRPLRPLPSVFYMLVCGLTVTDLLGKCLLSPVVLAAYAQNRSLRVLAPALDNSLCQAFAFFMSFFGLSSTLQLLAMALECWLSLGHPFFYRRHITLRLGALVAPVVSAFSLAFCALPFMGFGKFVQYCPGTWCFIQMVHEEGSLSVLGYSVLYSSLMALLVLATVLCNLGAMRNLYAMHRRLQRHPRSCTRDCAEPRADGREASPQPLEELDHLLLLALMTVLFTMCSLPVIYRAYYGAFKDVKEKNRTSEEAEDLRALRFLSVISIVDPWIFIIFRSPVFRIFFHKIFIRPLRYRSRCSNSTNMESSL
In words: Binding affinity to DP receptor.

Another experiment addresses T2, Thromboxane A2 receptor (Homo sapiens, UniProt P21731).
T2 sequence (P21731 whole entry): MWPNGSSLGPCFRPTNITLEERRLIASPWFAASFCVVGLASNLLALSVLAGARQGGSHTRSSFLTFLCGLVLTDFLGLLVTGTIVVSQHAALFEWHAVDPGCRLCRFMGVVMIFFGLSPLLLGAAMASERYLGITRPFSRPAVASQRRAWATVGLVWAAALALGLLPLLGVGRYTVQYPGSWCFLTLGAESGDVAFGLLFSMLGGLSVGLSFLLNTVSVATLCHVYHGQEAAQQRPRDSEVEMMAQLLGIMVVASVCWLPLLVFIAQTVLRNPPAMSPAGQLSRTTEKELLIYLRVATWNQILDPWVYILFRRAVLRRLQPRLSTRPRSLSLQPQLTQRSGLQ
In words: Binding affinity to TP receptor.

The target in another experiment is Prostacyclin receptor (Homo sapiens, UniProt P43119). In words: Binding affinity to IP receptor.
The target of experiment [2] is Prostaglandin E2 receptor EP4 subtype (Homo sapiens, UniProt P35408). In words: Binding affinity to EP4 receptor.
The target of experiment [3] is Prostaglandin E2 receptor EP2 subtype (Homo sapiens, UniProt P43116). The experiment in a line: Binding affinity to EP2 receptor.
Experiment [4] deals with Prostaglandin F2-alpha receptor (Homo sapiens, UniProt P43088). In words: Binding affinity to FP receptor.
The target of experiment [5] is T3, Prostaglandin E2 receptor EP1 subtype (Homo sapiens, UniProt P34995).
T3 sequence (P34995 whole entry): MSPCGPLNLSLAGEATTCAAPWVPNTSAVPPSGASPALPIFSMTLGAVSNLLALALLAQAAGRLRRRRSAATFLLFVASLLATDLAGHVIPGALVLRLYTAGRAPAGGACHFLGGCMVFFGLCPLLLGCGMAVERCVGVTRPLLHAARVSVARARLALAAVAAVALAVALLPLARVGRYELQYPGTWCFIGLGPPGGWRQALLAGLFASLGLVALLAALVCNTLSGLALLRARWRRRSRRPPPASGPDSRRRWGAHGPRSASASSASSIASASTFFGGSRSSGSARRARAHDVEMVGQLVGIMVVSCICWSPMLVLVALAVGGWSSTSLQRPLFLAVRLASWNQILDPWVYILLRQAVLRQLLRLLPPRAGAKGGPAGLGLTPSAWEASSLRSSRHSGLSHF
The experiment in a line: Binding affinity to EP1 receptor.

The target in experiment [6] is T4, Prostaglandin E2 receptor EP3 subtype (Homo sapiens, UniProt P43115).
T4 sequence (P43115 whole entry): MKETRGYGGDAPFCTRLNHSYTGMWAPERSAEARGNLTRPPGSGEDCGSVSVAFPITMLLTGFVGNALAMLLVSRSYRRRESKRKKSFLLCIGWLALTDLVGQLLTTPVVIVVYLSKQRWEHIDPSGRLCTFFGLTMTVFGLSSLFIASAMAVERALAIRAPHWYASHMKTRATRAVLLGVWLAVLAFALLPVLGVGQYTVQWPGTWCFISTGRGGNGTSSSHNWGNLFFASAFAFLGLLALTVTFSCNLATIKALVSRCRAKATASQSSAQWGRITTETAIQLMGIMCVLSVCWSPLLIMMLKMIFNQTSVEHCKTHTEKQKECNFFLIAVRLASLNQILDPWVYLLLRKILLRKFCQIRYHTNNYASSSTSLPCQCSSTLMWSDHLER
The experiment in a line: Binding affinity to EP3 receptor.

The target of experiment [7] is T1, Prostaglandin D2 receptor. In words: Activity at DP receptor assessed as inhibition of PGD2-induced cAMP accumulation in platelet. It counts as functional. Background: Cyclic AMP is a second messenger, typically raised through Gs and lowered through Gi signalling.
In experiment [8] the target is T1, Prostaglandin D2 receptor. In words: Activity at DP receptor assessed as inhibition of PGD2-induced cAMP accumulation in platelet rich plasma. It counts as functional.

Prostacyclin receptor, sequence (P43119 whole entry): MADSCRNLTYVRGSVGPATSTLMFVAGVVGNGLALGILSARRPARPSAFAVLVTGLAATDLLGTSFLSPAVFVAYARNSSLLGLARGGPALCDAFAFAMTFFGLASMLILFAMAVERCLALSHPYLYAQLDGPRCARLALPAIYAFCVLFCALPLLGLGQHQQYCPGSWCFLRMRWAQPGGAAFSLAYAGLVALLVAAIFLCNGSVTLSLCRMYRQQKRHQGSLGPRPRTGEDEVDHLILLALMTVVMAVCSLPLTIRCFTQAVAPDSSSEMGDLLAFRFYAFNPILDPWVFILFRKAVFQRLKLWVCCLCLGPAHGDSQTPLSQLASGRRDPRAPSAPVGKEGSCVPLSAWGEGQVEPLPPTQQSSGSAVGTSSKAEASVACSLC
Prostaglandin E2 receptor EP4 subtype, sequence (P35408 whole entry): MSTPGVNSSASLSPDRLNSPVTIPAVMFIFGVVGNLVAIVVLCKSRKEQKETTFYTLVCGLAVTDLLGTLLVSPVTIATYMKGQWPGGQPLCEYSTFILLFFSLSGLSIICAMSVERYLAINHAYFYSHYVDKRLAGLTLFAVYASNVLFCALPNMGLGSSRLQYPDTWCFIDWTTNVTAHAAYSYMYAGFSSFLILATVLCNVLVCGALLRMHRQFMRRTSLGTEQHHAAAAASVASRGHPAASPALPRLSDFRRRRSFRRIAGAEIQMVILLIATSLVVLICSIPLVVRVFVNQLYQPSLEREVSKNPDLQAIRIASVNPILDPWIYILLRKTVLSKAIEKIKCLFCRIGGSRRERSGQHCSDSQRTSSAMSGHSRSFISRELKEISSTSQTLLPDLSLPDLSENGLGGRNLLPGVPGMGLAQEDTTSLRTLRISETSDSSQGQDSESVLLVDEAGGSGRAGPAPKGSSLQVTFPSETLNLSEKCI
Prostaglandin E2 receptor EP2 subtype, sequence (P43116 whole entry): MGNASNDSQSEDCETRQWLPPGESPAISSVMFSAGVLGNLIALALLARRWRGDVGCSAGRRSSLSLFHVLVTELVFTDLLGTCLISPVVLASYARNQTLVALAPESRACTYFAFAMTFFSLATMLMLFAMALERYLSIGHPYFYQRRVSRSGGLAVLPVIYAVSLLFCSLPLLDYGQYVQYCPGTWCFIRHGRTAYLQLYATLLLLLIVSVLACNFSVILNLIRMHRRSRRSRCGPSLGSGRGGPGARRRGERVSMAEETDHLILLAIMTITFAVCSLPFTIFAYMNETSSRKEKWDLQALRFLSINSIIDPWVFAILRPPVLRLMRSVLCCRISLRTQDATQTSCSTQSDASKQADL
Prostaglandin F2-alpha receptor, sequence (P43088 whole entry): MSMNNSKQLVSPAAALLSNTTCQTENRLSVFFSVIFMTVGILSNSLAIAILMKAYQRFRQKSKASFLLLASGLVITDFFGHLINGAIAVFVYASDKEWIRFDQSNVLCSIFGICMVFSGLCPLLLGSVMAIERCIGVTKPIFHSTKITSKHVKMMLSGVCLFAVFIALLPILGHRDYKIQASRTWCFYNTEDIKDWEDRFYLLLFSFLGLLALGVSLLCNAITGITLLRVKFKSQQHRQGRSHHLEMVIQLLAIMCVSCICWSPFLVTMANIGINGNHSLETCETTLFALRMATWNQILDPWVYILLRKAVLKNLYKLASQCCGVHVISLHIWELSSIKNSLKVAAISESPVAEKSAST

In general, pKi refers to −log10 of the Ki, conventionally taken in molar units. Read a low pKi as a high Ki. For `CN(C)S(=O)(=O)c1ccc2c(c1)c1c(n2Cc2ccc(Cl)cc2)C(CC(=O)O)CC1` (stereo not drawn), the pKi in experiment [1] is 5.96; at Thromboxane A2 receptor it was 5.64.
Taken in the same sequence, the figures for `CS(=O)(=O)c1cc(Br)c2c(c1)c1c(n2Cc2ccc3sc(Cl)c(Cl)c3n2)C(CC(=O)O)CC1` (stereo not drawn) were 8.36 and 6.66.
As to `CS(=O)(=O)c1cc(Br)c2c(c1)c1c(n2Cc2cccc(Cl)c2)C(CC(=O)O)CC1` (stereo not drawn), the pKi is 8.46 in [1] and 6.12 at Thromboxane A2 receptor.
Taken in the same sequence, the figures for `CS(=O)(=O)c1cc(Br)c2c(c1)c1c(n2Cc2ccc3ccc(Cl)cc3n2)C(CC(=O)O)CC1` (stereo not drawn) were 9.00 and 6.74.
As for `CN(C)S(=O)(=O)c1cc(Br)c2c(c1)c1c(n2Cc2ccc(Cl)cc2)C(CC(=O)O)CC1` (stereo not drawn), the pKi in experiment [1] was 8.39; on Thromboxane A2 receptor, 7.00.
Taken in the same sequence, the figures for `C[S+]([O-])c1cccc2c3c(n(Cc4ccc(Cl)cc4)c12)[C@@H](CC(=O)O)CCC3` (single isomer, unassigned; 17) were 8.74 and 7.33.
Taken in the same sequence, the figures for `CS(=O)(=O)c1ccc2c(c1)c1c(n2Cc2ccc(Cl)cc2)C(CC(=O)O)CC1` (stereo not drawn) were 6.52 and 5.68.
As for `O=C(O)CC1CCCc2c1n(Cc1ccc(Cl)cc1)c1c([S+]([O-])Cc3ccccc3)cccc21` (stereo not drawn), the results for the pKi (in experiment [1]; at Thromboxane A2 receptor) were 8.41 and 6.85, respectively.
As to `C=Cc1cc(S(C)(=O)=O)cc2c3c(n(Cc4ccc(Cl)cc4)c12)C(CC(=O)O)CC3` (stereo not drawn), the pKi in experiment [1] was 8.44; on Thromboxane A2 receptor it was 6.28.
As to `O=C(O)CC1CCCc2c1n(Cc1ccc(Cl)cc1)c1c(CO)cccc21` (stereo not drawn), the pKi in experiment [1] was 7.80; at Thromboxane A2 receptor it was 8.11.
Consider `CC(O)c1cc(S(C)(=O)=O)cc2c3c(n(Cc4ccc(Cl)cc4)c12)C(CC(=O)O)CC3` (stereo not drawn), for which the pKi in [1] was 8.07; at Thromboxane A2 receptor it was 4.80.
Taken in the same sequence, the figures for `C[S+]([O-])c1cccc2c3c(n(Cc4ccc(Cl)cc4)c12)C(CC(=O)O)CCC3` (stereo not drawn) were 8.55 and 6.76.
The matching figures for `O=C(O)CC1CCCc2c1n(Cc1ccc(Cl)cc1)c1c(Br)cccc21` (stereo not drawn): 8.59 and 8.66.
With `CS(=O)(=O)c1cc(C#N)c2c(c1)c1c(n2Cc2ccc(Cl)cc2)C(CC(=O)O)CC1` (stereo not drawn), the pKi in [1] is 8.01; on Thromboxane A2 receptor, 5.96.
In turn, `C[S+]([O-])c1cccc2c3c(n(Cc4ccc(Cl)cc4)c12)[C@@H](CC(=O)O)CCC3` (single isomer, unassigned; 16) had a pKi on Thromboxane A2 receptor of 6.89.
Take `CC(C)[S+]([O-])c1cccc2c3c(n(Cc4ccc(Cl)cc4)c12)C(CC(=O)O)CCC3` (stereo not drawn): the pKi in experiment [1] was 7.64; on Thromboxane A2 receptor, 5.74.
The matching figures for `CSc1cccc2c3c(n(Cc4ccc(Cl)cc4)c12)C(CC(=O)O)CCC3` (stereo not drawn): 9.00 and 8.59.
`O=C(O)CC1CCCc2c1n(Cc1ccc(Cl)cc1)c1c(F)cc(F)cc21` (stereo not drawn): the pKi at Prostacyclin receptor is less than 5.70; in experiment [1] it was 7.96; in experiment [2] it was less than 5.54; in experiment [3], less than 5.34; at Thromboxane A2 receptor it was 8.77; in [4], less than 4.70. Besides, the pKi in [5] was less than 5.15; in [6], less than 6.52.
For `O=C(O)CC1CCCc2c1n(Cc1ccc(Cl)cc1)c1c(C(=O)Nc3ccccc3)cccc21` (stereo not drawn), the pKi in experiment [1] was 6.96; on Thromboxane A2 receptor, 7.06.
Turning to `CS(=O)(=O)c1cc(Br)c2c(c1)c1c(n2Cc2cccc(OC(F)(F)F)c2)C(CC(=O)O)CC1` (stereo not drawn), the pKi in [1] is 8.39; on Thromboxane A2 receptor, 6.59.
For orientation: pIC50 means −log10 of the IC50, conventionally taken in molar units. `CC(=O)c1cc(S(C)(=O)=O)cc2c3c(n(Cc4ccc(Cl)cc4)c12)[C@@H](CC(=O)O)CC3`: the pKi at Prostacyclin receptor is less than 4.70; in experiment [1], 8.59; in experiment [2] it was less than 4.70; in experiment [3], 6.64; at Thromboxane A2 receptor it was 5.92; in experiment [4], less than 4.70. The pKi in [5] and in experiment [6] was less than 4.70 each time. Besides, the pIC50 is 8.70 in experiment [7] and 8.10 in experiment [8].
As to `CC(C)(C)c1ccc(Cn2c3c(c4cc(S(C)(=O)=O)cc(Br)c42)CCC3CC(=O)O)cc1` (stereo not drawn), the pKi is 8.12 in [1] and 6.09 on Thromboxane A2 receptor.
Taken in the same sequence, the figures for `O=C(O)CC1CCCc2c1n(Cc1ccc(Cl)cc1)c1c([S+]([O-])c3ccccc3)cccc21` (stereo not drawn) were 7.54 and 7.02.
The matching figures for `O=C(O)CC1CCCc2c1n(Cc1ccc(Cl)cc1)c1ccccc21` (stereo not drawn): 7.44 and 8.62.
Taken in the same sequence, the figures for `CC(C)c1cccc2c3c(n(Cc4ccc(Cl)cc4)c12)C(CC(=O)O)CCC3` (stereo not drawn) were 8.77 and 8.04.
`CS(=O)(=O)c1cc(-c2cccs2)c2c(c1)c1c(n2Cc2ccc(Cl)cc2)C(CC(=O)O)CC1` (stereo not drawn): the pKi in experiment [1] is 8.35; at Thromboxane A2 receptor, 6.14.
With `CS(=O)(=O)c1cc(C2CCCCC2)c2c(c1)c1c(n2Cc2ccc(Cl)cc2)C(CC(=O)O)CC1` (stereo not drawn), the pKi is 8.55 in [1] and 6.48 at Thromboxane A2 receptor.
Taken in the same sequence, the figures for `CC(=O)c1cc(S(C)(=O)=O)cc2c3c(n(Cc4ccc(Cl)cc4)c12)C(CC(=O)O)CC3` (stereo not drawn) were 8.02 and 5.44.
Take `CC[S+]([O-])c1cccc2c3c(n(Cc4ccc(Cl)cc4)c12)C(CC(=O)O)CCC3` (stereo not drawn): the pKi was 8.40 in experiment [1] and 6.47 on Thromboxane A2 receptor.
On to `CS(=O)(=O)c1cccc2c3c(n(Cc4ccc(Cl)cc4)c12)C(CC(=O)O)CCC3` (stereo not drawn), for which the pKi in [1] is 8.72; on Thromboxane A2 receptor it was 8.29.
The matching figures for `CS(=O)(=O)c1ccc2c(c1)c1c(n2Cc2ccc(Cl)cc2)C(CC(=O)O)CCC1` (stereo not drawn): 7.10 and 6.00.
Regarding `CC(O)c1cc(S(C)(=O)=O)cc2c3c(n(Cc4ccc(Cl)cc4)c12)[C@@H](CC(=O)O)CC3` (stereo partly drawn), the pKi was less than 4.70 on Prostacyclin receptor; 8.74 in experiment [1]; less than 5.54 in [2]; 6.41 in experiment [3]; 5.15 on Thromboxane A2 receptor; less than 4.70 in [4]. Further, the pKi in experiment [5] and in experiment [6] was less than 4.70 throughout. Moreover, the pIC50 in experiment [7] is 8.70; in experiment [8], 8.07.
`O=Cc1cccc2c3c(n(Cc4ccc(Cl)cc4)c12)C(CC(=O)O)CCC3` (stereo not drawn): the pKi was 8.20 in experiment [1] and 8.18 on Thromboxane A2 receptor.
Consider `CS(=O)(=O)c1ccc(Cn2c3c(c4cc(S(C)(=O)=O)cc(Br)c42)CCC3CC(=O)O)cc1` (stereo not drawn), for which the negative-log Ki (pKi) was 5.72 in [1] and 5.57 on Thromboxane A2 receptor.
Taken in the same sequence, the figures for `CS(=O)(=O)c1cc(Br)c2c(c1)c1c(n2Cc2ccc(Cl)cc2)C(CC(=O)O)CC1` (stereo not drawn) were 8.77 and 6.70.
Taken in the same sequence, the figures for `CN(C)C(=O)c1cccc2c3c(n(Cc4ccc(Cl)cc4)c12)C(CC(=O)O)CCC3` (stereo not drawn) were 7.55 and 5.43.
